In patent US10849881B2, “Octahydro-cyclobuta[1,2-c;3,4-c′]dipyrrol-2-yl” (Hoffmann-La Roche Inc., priority 2013, dated 2020):

target: ATX (human His-tagged) (Homo sapiens (Human), UniProt Q13822); assay: Human ATX enzyme inhibition assay (fluorescence quenching, MR121 substrate); format: biochemical; settings: 30 nM ATX, 1 μM MR121 substrate, 30° C., pH 8.0
Method: Human ATX Enzyme Inhibition Assay
ATX inhibition was measured by a fluorescence quenching assay using a specifically labeled substrate analogue (MR121 substrate). To obtain this MR121 substrate, BOC and TBS protected 6-amino-hexanoic acid (R)-3-({2-[3-(2-{2-[2-(2-amino-ethoxy)-ethoxy]-ethoxy}-ethoxy)-propionylamino]-ethoxy}-hydroxy-phosphoryloxy)-2-hydroxy-propyl ester (Ferguson et al., Org Lett 2006, 8 (10), 2023) was labeled with MR121 fluorophore (CAS 185308-24-1, 1-(3-carboxypropyl)-11-ethyl-1,2,3,4,8,9,10,11-octahydro-dipyrido[3,2-b:2′,3′-i]phenoxazin-13-ium) on the free amine of the ethanolamine side and then, after deprotection, subsequently with tryptophan on the side of the aminohexanoic acid.
Assay working solutions were made as follows:
Assay buffer (50 mM Tris-HCl, 140 mM NaCl, 5 mM KCl, 1 mM CaCl2, 1 mM MgCl2, 0.01% Triton-X-100, pH 8.0;
ATX solution: ATX (human His-tagged) stock solution (1.08 mg/mL in 20 mM bicine, pH 8.5, 0.15 M NaCl, 10% glycerol, 0.3% CHAPS, 0.02% NaN3), diluted to 1.4-2.5× final concentration in assay buffer;
MR121 substrate solution: MR121 substrate stock solution (800 μM MR121 substrate in DMSO), diluted to 2-5× final concentration in assay buffer.
Test compounds (10 mM stock in DMSO, 8 μL) were obtained in 384 well sample plates (Corning Costar #3655) and diluted with 8 μL DMSO. Row-wise serial dilutions were made by transferring 8 μL cpd solution to the next row up to row O. The compound and control solutions were mixed five times and 2 μL were transferred to 384 well assay plates (Corning Costar #3702). Then, 15 μL of 41.7 nM ATX solution was added (30 nM final concentration), mixed five times and then incubated for 15 minutes at 30° C. 10 μL of MR121 substrate solution was added (1 μM final concentration), mixed 30 times and then incubated for 15 minutes at 30′C.

Structure (SMILES) | IC50 [nM]
CCn1ccc2c(OCC(F)(F)F)c(C(=O)N3C[C@@H]4[C@H]5CN(C(=O)c6ccc7[nH]nnc7c6)C[C@H]5[C@@H]4C3)ccc21 [Example 1.082, [(3aS,3bS,6aR,6bR)-5-(1H-benzotriazole-5-carbonyl)-octahydro-cyclobuta[1,2-c;3,4-c′]dipyrrol-2-yl]-[1-ethyl-4-(2,2,2-trifluoro-ethoxy)-1H-indol-5-yl]-methanone] | 3
O=C(c1cnc(OCC(F)(F)F)c(C2CCOCC2)c1)N1C[C@@H]2[C@H](C1)[C@H]1CN(C(=O)c3ccc4[nH]nnc4c3)C[C@@H]21 [Example 1.106, (1H-benzotriazol-5-yl)-{(3aS,3bS,6aR,6bR)-5-[5-(tetrahydro-pyran-4-yl)-6-(2,2,2-trifluoro-ethoxy)-pyridine-3-carbonyl]-octahydro-cyclobuta[1,2-c;3,4-c′]dipyrrol-2-yl}-methanone] | 169
CC(C)Oc1cc(C(=O)N2C[C@@H]3[C@H](C2)[C@H]2CN(C(=O)c4ccc5[nH]nnc5c4)C[C@@H]32)cc2c1CCCC2 [Example 1.078, [(3aS,3bS,6aR,6bR)-5-(1H-benzotriazole-5-carbonyl)-octahydro-cyclobuta[1,2-c;3,4-c′]dipyrrol-2-yl]-(4-isopropoxy-5,6,7,8-tetrahydro-naphthalen-2-yl)-methanone] | 3.5
O=C(c1ccc2[nH]nnc2c1)N1C[C@@H]2[C@H](C1)[C@H]1CN(C(=O)C3CCc4ccccc4C3)C[C@@H]21 (stereo partly drawn) [Example 1.031, [(3aS,3bR,6aS,6bR)-5-(1H-benzotriazole-5-carbonyl)-octahydro-cyclobuta[1,2-c;3,4-c′]dipyrrol-2-yl]-(1,2,3,4-tetrahydro-naphthalen-2-yl)-methanone] | 224
COCCOc1cc(C(=O)N2C[C@@H]3[C@H]4CN(C(=O)c5ccc6[nH]nnc6c5)C[C@H]4[C@@H]3C2)nc2ccccc12 [Example 1.069, [(3aR,3bS,6aR,6bS)-5-(1H-benzotriazole-5-carbonyl)-octahydro-cyclobuta[1,2-c;3,4-c′]dipyrrol-2-yl]-[4-(2-methoxy-ethoxy)-quinolin-2-yl]-methanone] | 8
O=C(c1ccc2[nH]nnc2c1)N1C[C@@H]2[C@H](C1)[C@H]1CN(C(=O)c3ccc4cc[nH]c4c3)C[C@@H]21 [Example 1.040, [(3aS,3bS,6aR,6bR)-5-(1H-benzotriazole-5-carbonyl)-octahydro-cyclobuta[1,2-c;3,4-c′]dipyrrol-2-yl]-(1H-indol-6-yl)-methanone] | 8670
Cc1cc(C(=O)N2C[C@@H]3[C@H]4CN(C(=O)c5ccc6[nH]nnc6c5)C[C@H]4[C@@H]3C2)nc2ccccc12 [Example 1.047, [(3aR,3bS,6aR,6bS)-5-(1H-benzotriazole-5-carbonyl)-octahydro-cyclobuta[1,2-c;3,4-c′]dipyrrol-2-yl]-(4-methyl-quinolin-2-yl)-methanone] | 205
Cn1c(C(=O)N2C[C@@H]3[C@H]4CN(C(=O)c5ccc6[nH]nnc6c5)C[C@H]4[C@@H]3C2)cc2ccccc21 [Example 1.024, [(3aR,3bS,6aR,6bS)-5-(1H-benzotriazole-5-carbonyl)-octahydro-cyclobuta[1,2-c;3,4-c′]dipyrrol-2-yl]-(1-methyl-1H-indol-2-yl)-methanone] | 377
O=C(c1ccc2c(c1)CCCC2)N1C[C@@H]2[C@H](C1)[C@H]1CN(C(=O)c3ccc4[nH]nnc4c3)C[C@@H]21 [Example 1.054, [(3aS,3bS,6aR,6bR)-5-(1H-benzotriazole-5-carbonyl)-octahydro-cyclobuta[1,2-c;3,4-c′]dipyrrol-2-yl]-(5,6,7,8-tetrahydro-naphthalen-2-yl)-methanone] | 59.2
CC(C)Cn1c(C(=O)N2C[C@@H]3[C@H]4CN(C(=O)c5ccc6[nH]nnc6c5)C[C@H]4[C@@H]3C2)cc2ccccc21 [Example 1.037, [(3aR,3bS,6aR,6bS)-5-(1H-benzotriazole-5-carbonyl)-octahydro-cyclobuta[1,2-c;3,4-c′]dipyrrol-2-yl]-(1-isobutyl-1H-indol-2-yl)-methanone] | 159
O=C(c1ccc(-c2ccc(Cl)cc2)cc1)N1C[C@@H]2[C@H](C1)[C@H]1CN(C(=O)c3ccc4[nH]nnc4c3)C[C@@H]21 [Example 1.017, [(3aS,3bS,6aR,6bR)-5-(1H-benzotriazole-5-carbonyl)-octahydro-cyclobuta[1,2-c;3,4-c′]dipyrrol-2-yl]-(4′-chloro-biphenyl-4-yl)-methanone] | 8
O=C(c1ccc2[nH]nnc2c1)N1C[C@@H]2[C@H](C1)[C@H]1CN(C(=O)c3ccc4ccccc4n3)C[C@@H]21 [Example 1.038, [(3aR,3bS,6aR,6bS)-5-(1H-benzotriazole-5-carbonyl)-octahydro-cyclobuta[1,2-c;3,4-c′]dipyrrol-2-yl]-quinolin-2-yl-methanone] | 687
COCCOc1nc(C(=O)N2C[C@@H]3[C@H]4CN(C(=O)c5ccc6[nH]nnc6c5)C[C@H]4[C@@H]3C2)cc2ccccc12 [Example 1.057, [(3aR,3bS,6aR,6bS)-5-(1H-benzotriazole-5-carbonyl)-octahydro-cyclobuta[1,2-c;3,4-c′]dipyrrol-2-yl]-[1-(2-methoxy-ethoxy)-isoquinoline-3-yl]-methanone] | 7.7
COc1cc(C(=O)N2C[C@@H]3[C@H](C2)[C@H]2CN(C(=O)[C@@H]4CCc5[nH]nnc5C4)C[C@@H]32)cc2ccccc12 [Example 1.044, (4-methoxy-naphthalen-2-yl)-[(3aR,3bS,6aR,6bS)-5-((R)-4,5,6,7-tetrahydro-1H-benzotriazole-5-carbonyl)-octahydro-cyclobuta[1,2-c;3,4-c′]dipyrrol-2-yl]-methanone] | 13
CCOc1cc(C(=O)N2C[C@@H]3[C@H](C2)[C@H]2CN(C(=O)[C@@H]4CCc5[nH]nnc5C4)C[C@@H]32)nc2cc(Cl)ccc12 [Example 1.077, (7-chloro-4-ethoxy-quinolin-2-yl)-[(3aR,3bS,6aR,6bS)-5-((R)-4,5,6,7-tetrahydro-1H-benzotriazole-5-carbonyl)-octahydro-cyclobuta[1,2-c;3,4-c′]dipyrrol-2-yl]methanone] | 7.5
CC1(C)CC(C(=O)N2C[C@@H]3[C@H]4CN(C(=O)c5ccc6[nH]nnc6c5)C[C@H]4[C@@H]3C2)Cc2ccccc21 (stereo partly drawn) [Example 1.055, [(3aS,3bR,6aS,6bR)-5-(1H-benzotriazole-5-carbonyl)-octahydro-cyclobuta[1,2-c;3,4-c′]dipyrrol-2-yl]-(4,4-dimethyl-1,2,3,4-tetrahydro-naphthalen-2-yl)-methanone] | 22
Cc1ccc2cc(C(=O)N3C[C@@H]4[C@H](C3)[C@H]3CN(C(=O)c5ccc6[nH]nnc6c5)C[C@@H]43)ccc2c1 [Example 1.013, [(3aS,3bS,6aR,6bR)-5-(1H-benzotriazole-5-carbonyl)-octahydro-cyclobuta[1,2-c;3,4-c′]dipyrrol-2-yl]-(6-methyl-naphthalen-2-yl)-methanone] | 54
CCOc1cc(C(=O)N2C[C@@H]3[C@H]4CN(C(=O)c5ccc6[nH]nnc6c5)C[C@H]4[C@@H]3C2)nc2ccc(Cl)cc12 [Example 1.096, [(3aR,3bS,6aR,6bS)-5-(1H-benzotriazole-5-carbonyl)-octahydro-cyclobuta[1,2-c;3,4-c′]dipyrrol-2-yl]-(6-chloro-4-ethoxy-quinolin-2-yl)-methanone] | 12
O=C(c1ccc2[nH]nnc2c1)N1C[C@@H]2[C@H](C1)[C@H]1CN(C(=O)N3CCc4cc(C(F)(F)F)ccc4C3)C[C@@H]21 [Example 4, [(3aR,3bS,6aR,6bS)-5-(1H-Benzotriazole-5-carbonyl)-octahydro-cyclobuta[1,2-c;3,4-c′]dipyrrol-2-yl]-(6-trifluoromethyl-3,4-dihydro-1H-isoquinolin-2-yl)-methanone] | 70
Cc1oc(-c2ccc(Cl)cc2)nc1C(=O)N1C[C@@H]2[C@H]3CN(C(=O)c4ccc5[nH]nnc5c4)C[C@H]3[C@@H]2C1 [Example 1.030, [(3aR,3bS,6aR,6bS)-5-(1H-benzotriazole-5-carbonyl)-octahydro-cyclobuta[1,2-c;3,4-c′]dipyrrol-2-yl]-[2-(4-chloro-phenyl)-5-methyl-oxazol-4-yl]-methanone] | 104
CCOc1cc(C(=O)N2C[C@@H]3[C@H](C2)[C@H]2CN(C(=O)c4ccc5[nH]nnc5c4F)C[C@@H]32)nc2ccccc12 [Example 1.110, [(3aS,3bR,6aS,6bR)-5-(4-ethoxy-quinoline-2-carbonyl)-octahydro-cyclobuta[1,2-c;3,4-c′]dipyrrol-2-yl]-(4-fluoro-1H-benzotriazol-5-yl)-methanone] | 32.5
